PMC4208696 (Biophysical chemistry, 2014)
pKd: −log10 of the molar value. Read-outs that look alike come from different tables or passages of the source.

Legend:
[1] = system: CaM76–148, sites III and IV; format: binding, mammalian; conditions: for increase in calcium-binding affinity (more favorable than without peptide) / ΔΔG2^app = ΔG2^app(CaM + Peptide) − ΔG2 (CaM Alone): 2 eq peptide
CaM1–148, sites I and II = format: binding, mammalian; conditions: for increase in calcium-binding affinity (more favorable than without peptide) / ΔΔG2^app = ΔG2^app(CaM + Peptide) − ΔG2 (CaM Alone): 2 eq peptide, sites I and II
[2] = system: CaM1–148, sites III and IV; format: binding, mammalian; conditions: for increase in calcium-binding affinity (more favorable than without peptide) / ΔΔG2^app = ΔG2^app(CaM + Peptide) − ΔG2 (CaM Alone): 2 eq peptide, sites III and IV; for effect of N-domain on calcium-binding affinity of the C-domain: CaM1–148 vs CaM76–148, with 2 eq peptide
CaM76–148 (CaM C-domain) = CaM76–148 (CaM C-domain) (Homo sapiens, UniProt P0DP23); format: binding, mammalian; conditions: for ΔG (calcium-saturated): 10 mM CaCl2; for ΔG (calcium-saturated) / ΔG (apo): free energy corresponding to estimated Kd, 22 °C; for Fold Change = (Kd, Apo)/(Kd, Ca^2+): apo vs calcium-saturated; for abundance of the apo CaM-peptide complex: calculated, start of calcium titration, 6 μM CaM76–148 with 2 eq (12 μM) peptide
CaM1–80, sites I and II = format: binding, mammalian; conditions: 2 eq peptide
CaM1–80 (CaM N-domain) = CaM1–80 (CaM N-domain) (Homo sapiens, UniProt P0DP23); format: binding, mammalian; conditions: for ΔG (calcium-saturated): 10 mM CaCl2; for ΔG (calcium-saturated) / ΔG (apo): free energy corresponding to estimated Kd, 22 °C; for Fold Change = (Kd, Apo)/(Kd, Ca^2+): apo vs calcium-saturated; for abundance of the apo CaM-peptide complex: calculated, start of calcium titration, 6 μM CaM1–80 with 2 eq (12 μM) peptide
[3] = target: CaM1–148 (full-length calmodulin) (Homo sapiens, UniProt P0DP23); format: binding, mammalian; conditions: for ΔG (calcium-saturated): 10 mM CaCl2; for ΔG (calcium-saturated) / ΔG (apo): free energy corresponding to estimated Kd, 22 °C; for Fold Change = (Kd, Apo)/(Kd, Ca^2+): apo vs calcium-saturated; for abundance of the apo CaM-peptide complex: calculated, start of calcium titration, 6 μM CaM1–148 with 2 eq (12 μM) peptide
full-length CaM = conditions: absence of magnesium, ref [46]; cited from earlier work
[4] = CaM1–148 with 2 eq peptide (Fig. 5A)

Question: Which results are given for “Ac-KSKKAVWHKLLSKQRRRAVVACFRMTPLYN-NH2 [hRyR1(3614–3643)p]”?
Answer: increase in calcium-binding affinity (more favorable than without peptide) [1]: 3.41 ± 0.14 kcal/mol; ΔΔG2^app = ΔG2^app(CaM + Peptide) − ΔG2 (CaM Alone) [1]: -3.41 ± 0.14 kcal/mol; increase in calcium-binding affinity (more favorable than without peptide) (CaM1–148, sites I and II): 3.78 ± 0.20 kcal/mol; ΔΔG2^app = ΔG2^app(CaM + Peptide) − ΔG2 (CaM Alone) (CaM1–148, sites I and II): -3.78 ± 0.18 kcal/mol; ΔΔG2^app = ΔG2^app(CaM + Peptide) − ΔG2 (CaM Alone) (CaM1–148, sites I and II; listed as 3614): -3.78 ± 0.20 kcal/mol; effect of the presence of the C-domain on calcium-binding free energy of sites I and II (more favorable by) (CaM1–148, sites I and II; CaM1–148 vs CaM1–80, with 2 eq peptide): 1.16 ± 0.25 kcal/mol; midpoint of calcium titration, N-domain (CaM1–148, sites I and II; [4]): ~ 1 μM; increase in calcium-binding affinity (more favorable than without peptide) [2]: 3.83 ± 0.14 kcal/mol; ΔΔG2^app = ΔG2^app(CaM + Peptide) − ΔG2 (CaM Alone) [2]: -3.83 ± 0.14 kcal/mol; effect of N-domain on calcium-binding affinity of the C-domain [2]: no significant effect; midpoint of calcium titration, C-domain [2, 4]: ~ 100 nM; pKd (CaM76–148 (CaM C-domain)): ≥ 8.00; ΔG (calcium-saturated) (CaM76–148 (CaM C-domain)): -10.80 kcal/mol; binds (Ca^2+)2-CaMC more favorably than apo CaMC (CaM76–148 (CaM C-domain); (Ca^2+)2-CaMC vs apo CaMC): ~ 5 kcal/mol; calcium dependence of interaction in words (CaM76–148 (CaM C-domain); apo and calcium-saturated): calcium-independent manner; Fold Change = (Kd, Apo)/(Kd, Ca^2+) (CaM76–148 (CaM C-domain)): ~2500; ΔG (apo) (CaM76–148 (CaM C-domain)): -6.22 ± 0.10 kcal/mol; C-domain fragment affinity more favorable than N-domain fragment (CaM76–148 (CaM C-domain); both in the presence and in the absence of calcium): 2 orders of magnitude; ΔΔG (hRyR1(3614–3643)p − hRyR1(1975–1999)p) (CaM76–148 (CaM C-domain); calcium-saturated C-domain): ≤ -4.00 kcal/mol; abundance of the apo CaM-peptide complex (CaM76–148 (CaM C-domain)): ~ 33%; increase in calcium-binding affinity (more favorable than without peptide) (CaM1–80, sites I and II): 2.62 ± 0.11 kcal/mol; ΔΔG2^app = ΔG2^app(CaM + Peptide) − ΔG2 (CaM Alone) (CaM1–80, sites I and II): -2.62 ± 0.11 kcal/mol; ΔG (calcium-saturated) (CaM1–80 (CaM N-domain)): -7.59 ± 0.22 kcal/mol; weaker binding of CaM1–80 than CaM1–148 and CaM76–148 (fold) (CaM1–80 (CaM N-domain); abstract, CaM1–80 required calcium): ~ 250 fold; affinity less favorable than that of apo CaM1–148 (factor) (CaM1–80 (CaM N-domain); apo): 220; calcium dependence of interaction in words (CaM1–80 (CaM N-domain); apo and calcium-saturated): requires calcium for association; Fold Change = (Kd, Apo)/(Kd, Ca^2+) (CaM1–80 (CaM N-domain)): ~600; ΔG (apo) (CaM1–80 (CaM N-domain); apo): -3.81 kcal/mol; affinity higher than for hRyR1(1975–1999)p (fold) (CaM1–80 (CaM N-domain); calcium-saturated N-domain): approximately 5 fold; ΔΔG (hRyR1(3614–3643)p − hRyR1(1975–1999)p) (CaM1–80 (CaM N-domain); calcium-saturated N-domain): -0.97 ± 0.24 kcal/mol; abundance of the apo CaM-peptide complex (CaM1–80 (CaM N-domain)): ~ 1%; pKd [3]: ≥ 9.00; ΔG (calcium-saturated) [3]: -12.15 kcal/mol; binding in words ([3]; apo (absence of calcium)): low micromolar Kd; Fold Change = (Kd, Apo)/(Kd, Ca^2+) [3]: ~7000; ΔG (apo) [3]: -7.02 ± 0.25 kcal/mol; abundance of the apo CaM-peptide complex [3]: ~ 64%; binding in words ([3]; high calcium concentrations): sub-nanomolar Kd

Question: Which results are given for “Ac-SRYGLLIKAFSMTAAETARRTREFR-NH2 [hRyR1(1975–1999)p]”?
Answer: interaction with apo calmodulin (ITC) in words (full-length CaM): failed to detect an interaction; increase in calcium-binding affinity (more favorable than without peptide) [1]: 0.69 ± 0.09 kcal/mol; ΔΔG2^app = ΔG2^app(CaM + Peptide) − ΔG2 (CaM Alone) [1]: -0.69 ± 0.09 kcal/mol; increase in calcium-binding affinity (more favorable than without peptide) (CaM1–148, sites I and II): 2.10 ± 0.29 kcal/mol; ΔΔG2^app = ΔG2^app(CaM + Peptide) − ΔG2 (CaM Alone) (CaM1–148, sites I and II): -2.10 kcal/mol; ΔΔG2^app = ΔG2^app(CaM + Peptide) − ΔG2 (CaM Alone) (CaM1–148, sites I and II; listed as 1975): -2.10 ± 0.29 kcal/mol; increase in calcium-binding affinity (more favorable than without peptide) [2]: 1.09 ± 0.23 kcal/mol; ΔΔG2^app = ΔG2^app(CaM + Peptide) − ΔG2 (CaM Alone) [2]: -1.09 ± 0.23 kcal/mol; effect of N-domain on calcium-binding affinity of the C-domain [2]: no significant effect; ΔG (calcium-saturated) (CaM76–148 (CaM C-domain)): -6.80 ± 0.05 kcal/mol; Fold Change = (Kd, Apo)/(Kd, Ca^2+) (CaM76–148 (CaM C-domain)): ~70; ΔG (apo) (CaM76–148 (CaM C-domain)): -4.30 kcal/mol; saturation of peptide (anisotropy) (CaM76–148 (CaM C-domain); calcium-saturated, at ~100 μM): greater than 85%; abundance of the apo CaM-peptide complex (CaM76–148 (CaM C-domain)): < 2%; increase in calcium-binding affinity (more favorable than without peptide) (CaM1–80, sites I and II): 0.82 ± 0.15 kcal/mol; ΔΔG2^app = ΔG2^app(CaM + Peptide) − ΔG2 (CaM Alone) (CaM1–80, sites I and II): -0.82 kcal/mol; ΔΔG2^app = ΔG2^app(CaM + Peptide) − ΔG2 (CaM Alone) (CaM1–80, sites I and II; listed as 1975): -0.82 ± 0.15 kcal/mol; ΔG (calcium-saturated) (CaM1–80 (CaM N-domain)): -6.62 ± 0.09 kcal/mol; Fold Change = (Kd, Apo)/(Kd, Ca^2+) (CaM1–80 (CaM N-domain)): ~600; ΔG (apo) (CaM1–80 (CaM N-domain); apo): -2.91 kcal/mol; saturation of peptide (anisotropy) (CaM1–80 (CaM N-domain); calcium-saturated (10 mM CaCl2), at ~100 μM CaM1–80): greater than 85%; abundance of the apo CaM-peptide complex (CaM1–80 (CaM N-domain)): < 2%; ΔG (calcium-saturated) [3]: -8.34 ± 0.01 kcal/mol; Fold Change = (Kd, Apo)/(Kd, Ca^2+) [3]: ~1300; ΔG (apo) [3]: -4.14 kcal/mol; saturation of peptide (anisotropy) ([3]; calcium-saturated, at ~100 μM): greater than 85%; abundance of the apo CaM-peptide complex [3]: < 2%

Question: With “CaM76–148: CaM C-domain, encompassing residues 76 to 148” as the substance, how does the “ΔΔG2 (CaM76–148 vs CaM1–148)” value ([1]; CaM alone) read?
Answer: The value was 0.17 ± 0.04 kcal/mol.
